Data reported in patent publication US11691928B2, “Compositions, systems and methods for delivery of an element in response to biological demand” (Lucent Biosciences, Inc., priority 2018, dated 2023).

How the values were obtained:
[1] = Effect of composition on pH of surrounding tap water; format: physicochemical; conditions: 4 ppm iron; tap water alone 6.93
Description: Since the pH of water is an important factor in biology for microorganism growth and survival, experiments were undertaken to determine what effect the compositions had on the pH of surrounding water.
The effects of 4 ppm iron-loaded composition (“Fe—WP”), iron chloride and iron sulfate on the pH of tap water was examined. […] However, the same amount of iron with sources of iron chloride and iron sulfate reduced the pH of tap water within a range of 1.6-2.9 units.

mung bean plants = assay: Plant growth study with salts or compositions comprising zinc or manganese on wood pulp in soil at elevated concentrations; format: in vivo
Protocol: Mung bean seeds were planted in 2 g of sterile sunshine mix soil in autoclaved jars. […] The wood pulp, acting as the carrier, was Canfor 350/70-1 (carrier C from Table 1). […] The root length was measured from start of roots to longest root tip. […] The plants to be used in the presence of compositions as disclosed herein were sowed in 2 g of sunshine mix to which 0.1 g of the composition was added, made of various concentrations of zinc or manganese. These were all watered with 5 mL deionized water. The beans grew in this treatment for 9 further days.

| Compound | PH of tap water [1] | toxicity for mung bean plants (mung bean plants; 2000 ppm in soil) | mung bean stem height and root length growth (mung bean plants; 2000 ppm zinc as salt in soil, 9 days, FIGS. 7(a), 7(b)) |
| --- | --- | --- | --- |
| O=S(=O)([O-])[O-].O=S(=O)([O-])[O-].O=S(=O)([O-])[O-].[Fe+3].[Fe+3] [Fe2(SO4)3, iron sulfate] | 4.17 | – | – |
| [Cl-].[Cl-].[Zn+2] [zinc, zinc chloride] | – | exhibits toxicity | reduced stem height and root length growth |
| iron chloride [FeCl3] | 4.03 | – | – |
